Holding throughout (assay type): cell-based
One test concerns PC9RK. Description: Cell proliferation assay (CellTiter-Glo), PC9RK. The settings on record: value marked (PC9RK), read-out: 3T3 del_T790M IC50, (PC9RK). Here is the method: Cell proliferation was measured using the CellTiter-Glo® Luminescent Cell Viability Assay. The assay involves the addition of a single reagent (CellTiter-Glo® Reagent) directly to cells cultured in serum-supplemented medium. The assay uses this one-step addition to induce cell lysis and generate a luminescent signal proportional to the amount of ATP present which is directly proportional to the number of metabolically active cells present in culture. The following cell lines were evaluated in this assay: NIH3T3/EGFR_L858R, NIH3T3/EGFR_E746-A750_deletion, NIH3T3/EGFR L858R+T790M, NIH3T3/EGFR_E746-A750_deletion+T790M, PC-9, PC9-DRH, NCI-H1975, and NCI-H3255. NIH/3T3 parental cells, NCI-H1975, and NCI-H3255 were purchased from the American Type Culture Collection (Manassas, Va.), and PC-9 cells were obtained from Japan. All cells were cultured according to recommendations. NIH/3T3 cells were grown in DMEM (Invitrogen, Carlsbad, Calif.) supplemented with 10% newborn calf serum (Invitrogen), and NIH3T3/EGFR mutant cells were grown in complete media with 5 μg/mL puromycin (Invitrogen). PC-9, NCI-H1975, and NCI-H3255 were grown in RPMI (Invitrogen, Carlsbad, Calif.) supplemented with 10% FBS (Sigma, St Louis, Mo.), and PC9-DRH cells were grown in complete media with 2 uM PF-00299804. Plasmids (pLPCX) with various EGFR constructs were made by GenScript (Piscataway, N.J.), and stable pools of NIH/3T3 cells expressing these constructs were made at Pfizer La Jolla. PC9-DRH cells were generated at Pfizer La Jolla by exposing cells to increasing concentrations of PF-00299804. Cells were plated in complete culture media (3000-5000 cells/well, 50 μl/well) on the bottom of white clear-bottom tissue culture treated microtiter plates (#3610, Corning Inc, Corning, N.Y.) and allowed to adhere overnight at 37° C., 5% CO2. The following day, compound dilution plates were prepared in 96 well clear V-bottom 0.5 mL polypropylene block plates (#3956, Corning, Inc). All cell lines were not evaluated for each compound. Each compound evaluated was prepared as a DMSO stock solution (10 mM). Compounds were tested in duplicate on each plate, with an 11-point serial dilution curve (1:3 dilution). Compound treatment (50 μl) was added from the compound dilution plate to the cell plate. The highest compound concentration was 1 or 10 μM (final), with a 0.3% final DMSO (#D-5879, Sigma, St Louis, Mo.) concentration. Plates were then incubated at 37° C., 5% CO2. […] Luminescence was recorded using the PerkinElmer EnVision Excite Multilabel Reader used for endpoint reading for Luminescence detection (Waltham, Mass.). Data were analyzed using a four-parameter fit in Microsoft Excel. […]

In test [1] the target is T1, EGFR wildtype, endogenous (Homo sapiens, UniProt P00533).
T1 construct: A549 (EGFR wildtype, endogenous); host or cells: A549
T1 sequence (P00533 25-1210): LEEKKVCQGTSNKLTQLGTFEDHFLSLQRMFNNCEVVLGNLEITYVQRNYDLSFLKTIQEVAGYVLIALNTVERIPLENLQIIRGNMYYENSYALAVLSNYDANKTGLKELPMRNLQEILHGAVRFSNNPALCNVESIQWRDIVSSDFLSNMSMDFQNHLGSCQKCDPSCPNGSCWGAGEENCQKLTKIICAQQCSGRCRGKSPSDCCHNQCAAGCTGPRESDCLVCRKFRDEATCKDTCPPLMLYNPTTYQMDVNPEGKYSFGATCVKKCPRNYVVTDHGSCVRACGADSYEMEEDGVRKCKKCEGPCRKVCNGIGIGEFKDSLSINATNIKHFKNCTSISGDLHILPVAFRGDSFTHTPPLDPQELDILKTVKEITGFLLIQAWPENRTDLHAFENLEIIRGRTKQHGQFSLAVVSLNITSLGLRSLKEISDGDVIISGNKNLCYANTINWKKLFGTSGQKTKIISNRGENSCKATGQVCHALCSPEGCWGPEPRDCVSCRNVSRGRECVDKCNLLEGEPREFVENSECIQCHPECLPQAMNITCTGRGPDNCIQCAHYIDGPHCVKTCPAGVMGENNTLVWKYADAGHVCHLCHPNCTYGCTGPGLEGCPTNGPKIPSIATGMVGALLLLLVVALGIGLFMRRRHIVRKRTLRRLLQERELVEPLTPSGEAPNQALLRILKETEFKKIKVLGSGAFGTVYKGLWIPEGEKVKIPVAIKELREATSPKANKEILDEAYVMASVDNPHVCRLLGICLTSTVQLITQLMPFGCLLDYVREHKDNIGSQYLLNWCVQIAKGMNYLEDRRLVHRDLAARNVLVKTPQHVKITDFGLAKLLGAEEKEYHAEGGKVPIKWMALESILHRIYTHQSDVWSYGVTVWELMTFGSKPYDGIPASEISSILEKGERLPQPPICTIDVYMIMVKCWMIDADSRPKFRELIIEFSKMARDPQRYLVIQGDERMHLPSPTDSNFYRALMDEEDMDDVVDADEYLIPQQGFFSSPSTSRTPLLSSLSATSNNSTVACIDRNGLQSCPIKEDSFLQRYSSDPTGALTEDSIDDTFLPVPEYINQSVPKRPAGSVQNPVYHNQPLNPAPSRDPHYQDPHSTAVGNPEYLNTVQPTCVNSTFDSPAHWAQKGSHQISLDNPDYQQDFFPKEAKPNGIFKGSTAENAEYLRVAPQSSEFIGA
Description: pEGFR Y1068 ELISA assay, A549 cells.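 Further: sandwich ELISA of phospho-EGFR Tyr1068 in cell lysates, cells exposed to compound for 2 h before EGF stimulation, 11-point threefold dilution series run in duplicate.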 The conditions noted are these: full serum media, stimulated 10 min with EGF (40 ng/mL), read-out: pEGFRY1068 ELISAA549 IC50. Background: An ELISA detects its analyte on a solid surface through an enzyme-linked reagent.

The target of a further test is EGFR L858R (Homo sapiens, UniProt P00533, L858R). Description: pEGFR Y1068 ELISA assay, NIH3T3/EGFR_L858R cells.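 Further: sandwich ELISA of phospho-EGFR Tyr1068 in lysates of stably transfected NIH/3T3 pools after 2 h compound exposure at 37 °C, 11-point threefold dilution series run in duplicate.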 The settings on record: 3T3 cell line, 2 hrs compound treatment; read-out: pEGFRY1068 ELISA3T3 L858R IC50.
Test [2] addresses T2, EGFR L858R+T790M, endogenous (Homo sapiens, UniProt P00533, L858R/T790M).
T2 construct: NCI-H1975 (EGFR L858R+T790M, endogenous); host or cells: NCI-H1975
Description: pEGFR Y1068 ELISA assay, NCI-H1975 cells.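 Further: sandwich ELISA of endogenous phospho-EGFR (Tyr1068) in lysates of treated cells, 11-point 1:3 serial dilution tested in duplicate per plate.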 The conditions noted are these: value marked (H1975): NCI-H1975 cells, 2 hrs compound treatment; read-out: pEGFRY1068 ELISA3T3T790M—L858R IC50 (nM), (H1975).

A further test deals with PC-9. Description: Cell proliferation assay (CellTiter-Glo), PC-9. The conditions noted are these: Homo sapiens, value marked (PC9), read-out: 3T3 del IC50, (PC9). The method, then:
(§1) Cell proliferation was measured using the CellTiter-Glo® Luminescent Cell Viability Assay. The assay involves the addition of a single reagent (CellTiter-Glo® Reagent) directly to cells cultured in serum-supplemented medium. The assay uses this one-step addition to induce cell lysis and generate a luminescent signal proportional to the amount of ATP present which is directly proportional to the number of metabolically active cells present in culture. The following cell lines were evaluated in this assay: NIH3T3/EGFR_L858R, NIH3T3/EGFR_E746-A750_deletion, NIH3T3/EGFR L858R+T790M, NIH3T3/EGFR_E746-A750_deletion+T790M, PC-9, PC9-DRH, NCI-H1975, and NCI-H3255. NIH/3T3 parental cells, NCI-H1975, and NCI-H3255 were purchased from the American Type Culture Collection (Manassas, Va.), and PC-9 cells were obtained from Japan. All cells were cultured according to recommendations. NIH/3T3 cells were grown in DMEM (Invitrogen, Carlsbad, Calif.) supplemented with 10% newborn calf serum (Invitrogen), and NIH3T3/EGFR mutant cells were grown in complete media with 5 μg/mL puromycin (Invitrogen). PC-9, NCI-H1975, and NCI-H3255 were grown in RPMI (Invitrogen, Carlsbad, Calif.) supplemented with 10% FBS (Sigma, St Louis, Mo.), and PC9-DRH cells were grown in complete media with 2 uM PF-00299804. Plasmids (pLPCX) with various EGFR constructs were made by GenScript (Piscataway, N.J.), and stable pools of NIH/3T3 cells expressing these constructs were made at Pfizer La Jolla. PC9-DRH cells were generated at Pfizer La Jolla by exposing cells to increasing concentrations of PF-00299804. Cells were plated in complete culture media (3000-5000 cells/well, 50 μl/well) on the bottom of white clear-bottom tissue culture treated microtiter plates (#3610, Corning Inc, Corning, N.Y.) and allowed to adhere overnight at 37° C., 5% CO2. The following day, compound dilution plates were prepared in 96 well clear V-bottom 0.5 mL polypropylene block plates (#3956, Corning, Inc). All cell lines were not evaluated for each compound. Each compound evaluated was prepared as a DMSO stock solution (10 mM). Compounds were tested in duplicate on each plate, with an 11-point serial dilution curve (1:3 dilution). Compound treatment (50 μl) was added from the compound dilution plate to the cell plate. The highest compound concentration was 1 or 10 μM (final), with a 0.3% final DMSO (#D-5879, Sigma, St Louis, Mo.) concentration. Plates were then incubated at 37° C., 5% CO2. After three to five days of compound treatment, CellTiter-Glo® Reagent (#G7573, Promega, Madison, Wis.) was prepared in one of two ways. If thawing a frozen aliquot of CellTiter-Glo® Reagent, the aliquot was thawed and equilibrated to room temperature prior to use while keeping it protected from light. Alternatively, new bottles of CellTiter-Glo® Buffer and CellTiter-Glo® Substrate were thawed and equilibrated to room temperature prior to use. CellTiter-Glo® Buffer (100 mL) was transferred into the amber bottle containing CellTiter-Glo® Substrate to reconstitute the lyophilized enzyme/substrate mixture, forming the CellTiter-Glo® Reagent. The reconstituted reagent was mixed by gently inverting the contents to obtain a homogeneous solution, and went into solution easily in less than one minute. Any unused reconstituted CellTiter-Glo® Reagent was immediately aliquoted and frozen at −20° C., protected from light. Cell plates were equilibrated at room temperature for approximately 30 minutes. An equivolume amount of CellTiter-Glo® Reagent (100 μL) was added to each well. Plates were mixed for two minutes on an orbital shaker to induce cell lysis, and then allowed to incubate at room temperature for 10 minutes to stabilize the luminescent signal. Luminescence was recorded using the PerkinElmer EnVision Excite Multilabel Reader used for endpoint reading for Luminescence detection (Waltham, Mass.). Data were analyzed using a four-parameter fit in Microsoft Excel. […]
For orientation: ATP-based viability assays read luminescence as a measure of living cells.

The test system of a further test is NCI-H3255. Description: Cell proliferation assay (CellTiter-Glo), NCI-H3255. The settings on record: Homo sapiens, value marked (H3255), read-out: 3T3 L858R IC50, (H3255). Here is the method: as §1
In a further test the test system is NCI-H1975. Description: Cell proliferation assay (CellTiter-Glo), NCI-H1975. The settings on record: Homo sapiens, value marked (H1975), read-out: 3T3 L858R_T790M IC50, (H1975). The method, then: as §1
Another test concerns the target T3, EGFR Del (PC9) (Homo sapiens, UniProt P00533, DEL746-750).
T3 construct: endogenous in cells; host or cells: PC-9
Description: EGFR ELISA, PC9 Del cells.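 Further: cellular EGFR autophosphorylation at Tyr1068 quantified by sandwich ELISA of cell lysates after 2 h compound exposure at 37 °C, 11-point threefold dilution series.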 The settings on record: read-out: EGFR_ELISA9E PC9 Del IC50.

The next test concerns the target EGFR L858R+T790M (Homo sapiens, UniProt P00533, L858R/T790M). Description: pEGFR Y1068 ELISA assay, NIH3T3/EGFR_L858R+T790M cells.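 Further: sandwich ELISA of EGFR phosphorylated at Tyr1068 in lysates of stably transfected NIH/3T3 cells, 11-point threefold dilution series run in duplicate.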 The conditions noted are these: 3T3 cell line, 2 hrs compound treatment; read-out: pEGFRY1068 ELISA3T3T790M—L858R IC50.
Another test deals with EGFR E746-A750 deletion (Homo sapiens, UniProt P00533, DEL746-750). Description: pEGFR Y1068 ELISA assay, NIH3T3/EGFR_E746-A750 deletion cells.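 Further: sandwich ELISA on cell lysates detecting phospho-EGFR at Tyr1068, compounds run as 11-point threefold dilution series in duplicate, IC50 from inhibition of this phosphorylation signal.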 The settings on record: 3T3 Del cells, 2 hrs compound treatment; read-out: ELISA7E 3T3 Del IC50.
EGFR E746-A750 deletion, sequence (P00533 with tags, fused parts or gaps DEL746-750): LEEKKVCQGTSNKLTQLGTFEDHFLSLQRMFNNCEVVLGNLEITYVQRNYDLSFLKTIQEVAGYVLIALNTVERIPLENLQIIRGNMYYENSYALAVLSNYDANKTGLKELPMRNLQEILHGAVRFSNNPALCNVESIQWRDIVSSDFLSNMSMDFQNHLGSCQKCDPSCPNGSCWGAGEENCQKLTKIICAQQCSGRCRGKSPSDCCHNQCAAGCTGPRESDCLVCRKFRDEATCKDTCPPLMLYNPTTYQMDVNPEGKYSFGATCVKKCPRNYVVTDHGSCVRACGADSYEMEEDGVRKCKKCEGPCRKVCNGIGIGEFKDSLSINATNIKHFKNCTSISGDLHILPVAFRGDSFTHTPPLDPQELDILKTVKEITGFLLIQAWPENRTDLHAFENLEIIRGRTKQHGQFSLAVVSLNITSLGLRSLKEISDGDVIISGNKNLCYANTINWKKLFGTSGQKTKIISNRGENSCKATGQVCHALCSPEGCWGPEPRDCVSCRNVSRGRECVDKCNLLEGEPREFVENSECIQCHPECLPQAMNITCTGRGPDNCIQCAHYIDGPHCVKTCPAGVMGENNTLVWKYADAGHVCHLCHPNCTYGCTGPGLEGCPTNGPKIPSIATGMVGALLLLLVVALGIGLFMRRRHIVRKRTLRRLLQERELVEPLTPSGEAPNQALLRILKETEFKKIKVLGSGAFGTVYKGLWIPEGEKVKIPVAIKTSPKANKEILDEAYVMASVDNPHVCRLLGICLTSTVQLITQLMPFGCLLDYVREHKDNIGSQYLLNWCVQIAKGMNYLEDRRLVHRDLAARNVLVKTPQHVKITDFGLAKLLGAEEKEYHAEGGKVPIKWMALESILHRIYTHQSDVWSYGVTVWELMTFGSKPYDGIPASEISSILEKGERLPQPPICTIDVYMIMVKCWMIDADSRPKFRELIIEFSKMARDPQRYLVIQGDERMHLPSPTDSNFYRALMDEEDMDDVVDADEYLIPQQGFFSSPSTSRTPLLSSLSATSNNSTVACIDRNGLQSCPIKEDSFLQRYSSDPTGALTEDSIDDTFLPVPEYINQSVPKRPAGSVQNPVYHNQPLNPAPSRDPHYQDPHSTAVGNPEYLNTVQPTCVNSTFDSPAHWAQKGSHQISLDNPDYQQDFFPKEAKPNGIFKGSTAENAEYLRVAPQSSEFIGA
For another test, the target named is T4, EGFR L858R, endogenous (Homo sapiens, UniProt P00533, L858R).
T4 construct: NCI-H3255 (EGFR L858R, endogenous); endogenous in cells; host or cells: NCI-H3255
Description: pEGFR Y1068 ELISA assay, NCI-H3255 cells. The conditions noted are these: value marked (H3255): NCI-H3255 cells, 2 hrs compound treatment; read-out: pEGFRY1068 ELISA3T3 L858R IC50 (nM), (H3255).

SMILES strings stand for the structures.

EGFR L858R+T790M, sequence (P00533 25-1210 T790M/L858R): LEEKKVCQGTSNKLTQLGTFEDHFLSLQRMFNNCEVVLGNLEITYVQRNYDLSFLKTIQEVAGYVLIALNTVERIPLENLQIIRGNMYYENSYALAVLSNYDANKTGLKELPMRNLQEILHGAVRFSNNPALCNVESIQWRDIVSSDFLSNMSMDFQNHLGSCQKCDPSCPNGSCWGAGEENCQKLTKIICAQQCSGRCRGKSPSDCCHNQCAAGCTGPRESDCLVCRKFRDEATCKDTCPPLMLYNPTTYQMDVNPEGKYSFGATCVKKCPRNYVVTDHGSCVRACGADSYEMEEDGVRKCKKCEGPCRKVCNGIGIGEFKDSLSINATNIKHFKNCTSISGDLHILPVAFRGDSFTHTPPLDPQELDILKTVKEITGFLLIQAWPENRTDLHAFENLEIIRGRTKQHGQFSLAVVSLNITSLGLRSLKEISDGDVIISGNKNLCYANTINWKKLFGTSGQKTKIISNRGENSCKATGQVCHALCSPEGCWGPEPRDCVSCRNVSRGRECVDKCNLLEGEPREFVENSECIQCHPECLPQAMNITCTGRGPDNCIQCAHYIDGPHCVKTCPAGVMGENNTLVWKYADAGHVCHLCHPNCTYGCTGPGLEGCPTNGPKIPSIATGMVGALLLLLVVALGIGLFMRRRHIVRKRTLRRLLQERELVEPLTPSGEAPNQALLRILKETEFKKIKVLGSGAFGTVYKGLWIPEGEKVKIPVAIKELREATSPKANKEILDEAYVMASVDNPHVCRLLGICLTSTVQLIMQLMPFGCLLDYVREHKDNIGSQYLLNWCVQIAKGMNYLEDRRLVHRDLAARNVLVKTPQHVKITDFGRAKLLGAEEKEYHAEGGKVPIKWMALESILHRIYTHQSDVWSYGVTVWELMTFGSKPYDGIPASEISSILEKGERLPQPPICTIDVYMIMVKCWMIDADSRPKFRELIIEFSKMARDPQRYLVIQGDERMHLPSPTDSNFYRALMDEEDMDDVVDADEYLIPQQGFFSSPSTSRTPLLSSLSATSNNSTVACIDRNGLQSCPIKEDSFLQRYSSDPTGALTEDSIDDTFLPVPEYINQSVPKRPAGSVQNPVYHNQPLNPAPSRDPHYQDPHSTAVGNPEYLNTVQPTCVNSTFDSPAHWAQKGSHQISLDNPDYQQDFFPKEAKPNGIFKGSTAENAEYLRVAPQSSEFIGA
T3 sequence (P00533 with tags, fused parts or gaps DEL746-750): as the sequence (P00533 with tags, fused parts or gaps DEL746-750) above

In general, IC50 refers to the concentration that gives 50% inhibition. On to `C=CC(=O)N1C[C@H](COc2nc(Nc3cnn(CCO)c3)nc3[nH]cc(Cl)c23)[C@@H](OC)C1` [Example 101], for which the IC50 in the test on PC9RK was 100 to 1000 nM; in [1], > 10000 nM; at EGFR L858R, 1010 nM; in test [2], 48 nM; in the test with PC-9 it was > 1000 nM; in the test with NCI-H3255, 100 to 1000 nM. Further, the IC50 in the test with NCI-H1975 was > 1000 nM; at EGFR Del (PC9), 6540 nM.

Consider `C=CC(=O)N1C[C@H](COc2nc(Nc3cnn([C@H]4CCOC4)c3)nc3[nH]cc(Cl)c23)[C@@H](OC)C1` [Example 102], for which the IC50 in the test on PC9RK is 100 to 1000 nM; in test [1] it was 4960 nM; at EGFR L858R it was 297 nM; with PC-9 it was 100 to 1000 nM; in the test with NCI-H3255, 100 to 1000 nM; on EGFR L858R+T790M, 21 nM. Moreover, the IC50 with NCI-H1975 was 100 to 1000 nM; on EGFR E746-A750 deletion, 709 nM.

In the case of `C=CC(=O)N[C@H]1C[C@@H](Oc2nc(Nc3cnn(C)c3)nc3[nH]cc(-c4cccnc4)c23)C1` [Example 109], the IC50 was 100 to 1000 nM with PC9RK; 5540 nM in test [1]; 271 nM at EGFR L858R; 10 to 100 nM in the test on PC-9; 100 to 1000 nM in the test on NCI-H3255; 153 nM at EGFR L858R+T790M. The results for the IC50 in the test with NCI-H1975, on EGFR Del (PC9) and on EGFR E746-A750 deletion were 100 to 1000 nM, 29 nM and 32 nM, respectively.

As for `C=CC(=O)N1C[C@H](COc2nc(Nc3ccn(C)n3)nc3[nH]cc(Cl)c23)[C@@H](OC)C1` [Example 111], the IC50 in [1] was > 10000 nM; on EGFR L858R it was 352 nM; in the test with PC-9, 100 to 1000 nM; in the test on NCI-H3255, 100 to 1000 nM; on EGFR L858R+T790M, 14 nM; in the test on NCI-H1975, > 1000 nM. The IC50 at EGFR E746-A750 deletion is 886 nM.

For `C=CC(=O)N[C@]1(C)C[C@H](Oc2nc(Nc3cnn(C)c3)nc3[nH]cc(Cl)c23)C1` [Example 114], the IC50 was 100 to 1000 nM in the test on PC9RK; 667 nM at EGFR L858R, endogenous; > 10000 nM in test [1]; 39 nM in [2]; 100 to 1000 nM in the test with PC-9; 10 to 100 nM in the test on NCI-H3255. For the same compound, the IC50 in the test on NCI-H1975 is 100 to 1000 nM; on EGFR Del (PC9) it was 1200 nM.

The values are drawn from patent publication US9040547B2, “Pyrrolopyrimidine and purine derivatives” (PFIZER INC., priority 2011, dated 2015).
